Experimental data as given in US20240270762A1, “PENICILLIN-BINDING PROTEIN INHIBITORS” (priority 2021, published 2024).

How the values were obtained:
[1] = test system: B. thailandensis ATCC 700388; experiment: microbe, parasite or virus in culture; type: cell-based; conditions: Burkholderia thailandensis, ATCC700388, read-out: Minimum inhibitory concentration (MIC), B. thailandensis ATCC 700388
A. baumannii PBP2 = A. baumannii PBP2 (Acinetobacter baumannii, UniProt D0C8Z9); experiment: Bocillin-FL competition binding via gel filtration, A. baumannii PBP2
Protocol: (§1) Affinity to A. baumannii PBP1a and PBP2 was assessed a competitive equilibrium binding assay using Bocillin-FL as the reporter molecule. Enzyme was pre-incubated with increasing concentrations of inhibitors, prior to addition of Bocillin and further incubation for 15 minutes. PBP bound with Bocillin-FL was separated by gel filtration using 96-well Zeba Spin size exclusion plates, and the fluorescence measured. The inhibitor affinity (reported as the EC50) was determined by plotting the fraction of PBP bound with Bocillin-FL at each inhibitor concentration against the inhibitor concentration, and fitting the data to the following equation:
(§2) [formula] • where y is the fraction bound at a given inhibitor concentration, ymin is the fraction bound when the enzyme is completely inactivated, ymax is the maximum (uninhibited) fraction bound, n is the Hill coefficient, and x is the inhibitor concentration.

A. baumannii PBP1a = molecular target: T1, A. baumannii PBP1a (Acinetobacter baumannii, UniProt A0ABX6CK30); experiment: Bocillin-FL competition binding via gel filtration, A. baumannii PBP1a; conditions: competition binding assay using Bocillin-FL via gel filtration; read-out: A. baumannii PBP1a Potency
T1 sequence (A0ABX6CK30 1-851): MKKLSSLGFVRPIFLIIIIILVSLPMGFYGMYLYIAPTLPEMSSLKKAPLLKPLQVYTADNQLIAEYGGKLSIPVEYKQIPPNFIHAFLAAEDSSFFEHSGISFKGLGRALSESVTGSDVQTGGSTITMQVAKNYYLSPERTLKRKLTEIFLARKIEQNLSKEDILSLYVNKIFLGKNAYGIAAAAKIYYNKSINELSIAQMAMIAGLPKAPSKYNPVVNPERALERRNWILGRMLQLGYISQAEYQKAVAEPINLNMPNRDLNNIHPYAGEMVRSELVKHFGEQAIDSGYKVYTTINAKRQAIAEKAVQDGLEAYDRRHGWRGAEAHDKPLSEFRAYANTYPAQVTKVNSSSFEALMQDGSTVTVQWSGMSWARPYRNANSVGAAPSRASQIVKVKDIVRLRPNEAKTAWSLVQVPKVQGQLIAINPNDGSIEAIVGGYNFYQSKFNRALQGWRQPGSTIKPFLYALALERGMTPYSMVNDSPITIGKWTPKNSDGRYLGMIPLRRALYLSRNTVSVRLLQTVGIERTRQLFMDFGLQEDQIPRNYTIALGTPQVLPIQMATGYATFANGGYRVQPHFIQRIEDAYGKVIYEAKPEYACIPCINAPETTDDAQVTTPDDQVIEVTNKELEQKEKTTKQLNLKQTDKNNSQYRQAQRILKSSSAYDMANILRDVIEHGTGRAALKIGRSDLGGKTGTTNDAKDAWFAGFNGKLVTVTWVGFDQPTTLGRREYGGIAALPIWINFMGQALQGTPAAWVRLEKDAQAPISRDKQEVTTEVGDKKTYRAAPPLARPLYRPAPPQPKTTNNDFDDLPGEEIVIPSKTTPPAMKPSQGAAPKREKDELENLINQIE
Protocol: as §1, §2

[2] = test system: B. humptydooensis ATCC BAA-2767; experiment: microbe, parasite or virus in culture; type: cell-based; conditions: Burkholderia humptydooensis, ATCCBAA2767, read-out: Minimum inhibitory concentration (MIC), B. humptydooensis ATCC BAA-2767

A. baumannii PBP2, sequence (D0C8Z9 whole entry): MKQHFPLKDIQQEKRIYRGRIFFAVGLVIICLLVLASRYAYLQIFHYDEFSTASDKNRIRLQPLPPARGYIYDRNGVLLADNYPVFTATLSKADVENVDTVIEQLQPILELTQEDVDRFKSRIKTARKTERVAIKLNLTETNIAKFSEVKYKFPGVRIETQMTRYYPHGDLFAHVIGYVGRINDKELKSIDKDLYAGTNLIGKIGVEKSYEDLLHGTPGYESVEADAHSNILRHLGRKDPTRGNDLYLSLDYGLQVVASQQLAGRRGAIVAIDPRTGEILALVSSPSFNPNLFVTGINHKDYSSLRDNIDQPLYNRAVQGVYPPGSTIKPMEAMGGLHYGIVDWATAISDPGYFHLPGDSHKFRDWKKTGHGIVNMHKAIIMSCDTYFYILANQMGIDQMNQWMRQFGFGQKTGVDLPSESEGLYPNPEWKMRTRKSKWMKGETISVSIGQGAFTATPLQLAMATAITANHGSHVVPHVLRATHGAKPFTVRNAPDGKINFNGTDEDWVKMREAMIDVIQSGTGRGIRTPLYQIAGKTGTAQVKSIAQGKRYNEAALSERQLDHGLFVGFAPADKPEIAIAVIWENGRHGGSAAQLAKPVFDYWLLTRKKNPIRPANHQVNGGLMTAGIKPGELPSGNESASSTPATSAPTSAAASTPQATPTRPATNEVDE

| Structure (SMILES) | MIC [1] | EC50 (A. baumannii PBP2) | EC50 (A. baumannii PBP1a) | MIC [2] |
| --- | --- | --- | --- | --- |
| O=C(O)c1c(F)ccc2c1OB(O)[C@@H](NC(=O)C(NC(=O)N1CCN(C3CCN(Cc4ccc(F)c(O)c4)CC3)C1=O)c1cc(F)c(O)c(O)c1Cl)C2 (single isomer, unassigned) [Example 606] | < 1 µg/mL | 10 to 50 µM | < 10 µM | < 1 µg/mL |
| O=C(O)c1c(F)ccc2c1OB(O)[C@@H](NC(=O)[C@H](NC(=O)N1CCN(C3CCN(Cc4cc(O)cc(F)c4)CC3)C1=O)c1cc(F)c(O)c(O)c1Cl)C2 (single isomer, unassigned) [Example 607] | < 1 µg/mL | 10 to 50 µM | < 10 µM | < 1 µg/mL |
| O=C(O)c1c(F)ccc2c1OB(O)[C@@H](NC(=O)[C@H](NC(=O)N1CCN(C3CCN(Cc4cc(O)ccc4F)CC3)C1=O)c1cc(F)c(O)c(O)c1Cl)C2 (single isomer, unassigned) [Example 608] | < 1 µg/mL | 10 to 50 µM | < 10 µM | < 1 µg/mL |
| O=C(O)c1c(F)ccc2c1OB(O)[C@@H](NC(=O)C(NC(=O)N1CCN(C3CCN(Cc4ccc(O)cc4F)CC3)C1=O)c1cc(F)c(O)c(O)c1Cl)C2 (single isomer, unassigned) [Example 611] | < 1 µg/mL | 10 to 50 µM | < 10 µM | < 1 µg/mL |
| NCc1cccc(CN2CCC(N3CCN(C(=O)N[C@@H](C(=O)N[C@H]4Cc5ccc(F)c(C(=O)O)c5OB4O)c4cc(F)c(O)c(O)c4Cl)C3=O)CC2)c1 (single isomer, unassigned) [Example 613] | < 1 µg/mL | 10 to 50 µM | 10 to 50 µM | < 1 µg/mL |
| O=C(O)c1c(F)ccc2c1OB(O)[C@@H](NC(=O)C(NC(=O)N1CCN(C3CCN(S(=O)(=O)c4cc(O)cc(O)c4)CC3)C1=O)c1cc(F)c(O)c(O)c1Cl)C2 (stereo partly drawn) [Example 600, (3R)-3-(2-(2-chloro-5-fluoro-3,4-dihydroxyphenyl)-2-(3-(1-((3,5-dihydroxyphenyl)sulfonyl)piperidin-4-yl)-2-oxoimidazolidine-1-carboxamido)acetamido)-7-fluoro-2-hydroxy-3,4-dihydro-2H-benzo[e][1,2]oxaborinine-8-carboxylic acid] | > 128 µg/mL | < 10 µM | < 10 µM | > 128 µg/mL |
